Source: US12264156B2, “Compounds and pharmaceutical compositions thereof for the treatment of diseases” (GALAPAGOS NV, priority 2018, dated 2025)

Legend:
Format in all cases: biochemical
Details in all cases: ADP-Glo SIK kinase assay
[1] = target: T1, SIK1 (Homo sapiens, UniProt P57059); test: ADP-Glo kinase assay, SIK1
T1 construct: purchased Carna Biosciences 02-131
Description: (§1) The ADP-Glo™ kinase assay is a luminescent technology assay which measures the ADP formed from a kinase reaction. […] In a second step the kinase reactions are terminated and all the remaining ATP is depleted. In a final step the ADP is converted into ATP and this newly synthesized ATP is measured by using a luciferase/luciferin reaction. The generated light is measured using an Envision plate reader, wherein the luminescent signal obtained positively correlates with the kinase activity.
(§2) 1% DMSO and 10 μM staurosporine final concentrations are used as negative and positive controls.
(§3) 2 μL enzyme-substrate mixture is added to the assay plates.
(§4) The reaction is started by adding 2 μL diluted ATP on the assay plates. Plates are centrifuged for a few seconds at 1000 rpm and gently shaken for 2 min followed by an incubation at RT for 120 min.
(§5) The reactions are stopped and the unconsumed ATP is depleted by adding 5 μL ADP-Glo Reagent (Promega, Cat #V912B) to the reaction. The plates are centrifuged for a few seconds at 1000 rpm and incubated at RT for 40 min (ATP depletion).
(§6) The ADP is converted to ATP and luciferase and luciferin is introduced to detect ATP by adding 10 μL Kinase Detection Reagent (Promega, Cat #V913B+V914B) to the reaction. The plates are centrifuged for a few seconds at 1000 rpm and incubated at RT for 30 min (ADP detection).
(§7) Luminescence is measured on an Envision plate reader (PerkinElmer Inc.).

[2] = target: T2, SIK2 (Homo sapiens, UniProt Q9H0K1); test: ADP-Glo kinase assay, SIK2
T2 construct: purchased ThermoFisher Scientific PV4792
T2 sequence (Q9H0K1 whole entry): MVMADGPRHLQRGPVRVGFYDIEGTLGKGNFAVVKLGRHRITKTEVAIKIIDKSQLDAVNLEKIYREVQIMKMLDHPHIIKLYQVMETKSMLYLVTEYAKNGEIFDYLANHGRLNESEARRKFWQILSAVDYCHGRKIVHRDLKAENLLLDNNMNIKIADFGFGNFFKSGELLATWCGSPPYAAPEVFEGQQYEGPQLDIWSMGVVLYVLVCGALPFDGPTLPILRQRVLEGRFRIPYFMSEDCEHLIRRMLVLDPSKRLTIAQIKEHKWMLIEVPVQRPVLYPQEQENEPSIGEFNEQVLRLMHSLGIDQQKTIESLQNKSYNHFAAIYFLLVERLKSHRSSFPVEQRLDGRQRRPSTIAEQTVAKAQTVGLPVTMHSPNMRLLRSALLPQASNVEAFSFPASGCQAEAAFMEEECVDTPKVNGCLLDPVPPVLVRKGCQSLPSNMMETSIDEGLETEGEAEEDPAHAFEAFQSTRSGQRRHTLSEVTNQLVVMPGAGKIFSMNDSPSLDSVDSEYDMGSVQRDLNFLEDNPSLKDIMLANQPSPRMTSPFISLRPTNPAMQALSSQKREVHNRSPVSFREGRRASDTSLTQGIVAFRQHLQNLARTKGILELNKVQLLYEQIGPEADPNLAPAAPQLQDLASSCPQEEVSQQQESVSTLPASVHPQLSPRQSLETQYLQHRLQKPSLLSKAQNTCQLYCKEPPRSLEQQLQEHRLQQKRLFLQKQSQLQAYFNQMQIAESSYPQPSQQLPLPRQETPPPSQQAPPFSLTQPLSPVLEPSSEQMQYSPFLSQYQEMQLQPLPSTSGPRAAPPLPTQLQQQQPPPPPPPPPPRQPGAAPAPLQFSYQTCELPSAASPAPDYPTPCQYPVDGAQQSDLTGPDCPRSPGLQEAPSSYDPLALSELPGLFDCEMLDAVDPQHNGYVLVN
Description: as §1, §2, §3, §4, §5, §6, §7

[3] = target: T3, SIK3 (Homo sapiens, UniProt Q9Y2K2); test: ADP-Glo kinase assay, SIK3
T3 construct: purchased SignalChem S12-11G-100
T3 sequence (Q9Y2K2 whole entry): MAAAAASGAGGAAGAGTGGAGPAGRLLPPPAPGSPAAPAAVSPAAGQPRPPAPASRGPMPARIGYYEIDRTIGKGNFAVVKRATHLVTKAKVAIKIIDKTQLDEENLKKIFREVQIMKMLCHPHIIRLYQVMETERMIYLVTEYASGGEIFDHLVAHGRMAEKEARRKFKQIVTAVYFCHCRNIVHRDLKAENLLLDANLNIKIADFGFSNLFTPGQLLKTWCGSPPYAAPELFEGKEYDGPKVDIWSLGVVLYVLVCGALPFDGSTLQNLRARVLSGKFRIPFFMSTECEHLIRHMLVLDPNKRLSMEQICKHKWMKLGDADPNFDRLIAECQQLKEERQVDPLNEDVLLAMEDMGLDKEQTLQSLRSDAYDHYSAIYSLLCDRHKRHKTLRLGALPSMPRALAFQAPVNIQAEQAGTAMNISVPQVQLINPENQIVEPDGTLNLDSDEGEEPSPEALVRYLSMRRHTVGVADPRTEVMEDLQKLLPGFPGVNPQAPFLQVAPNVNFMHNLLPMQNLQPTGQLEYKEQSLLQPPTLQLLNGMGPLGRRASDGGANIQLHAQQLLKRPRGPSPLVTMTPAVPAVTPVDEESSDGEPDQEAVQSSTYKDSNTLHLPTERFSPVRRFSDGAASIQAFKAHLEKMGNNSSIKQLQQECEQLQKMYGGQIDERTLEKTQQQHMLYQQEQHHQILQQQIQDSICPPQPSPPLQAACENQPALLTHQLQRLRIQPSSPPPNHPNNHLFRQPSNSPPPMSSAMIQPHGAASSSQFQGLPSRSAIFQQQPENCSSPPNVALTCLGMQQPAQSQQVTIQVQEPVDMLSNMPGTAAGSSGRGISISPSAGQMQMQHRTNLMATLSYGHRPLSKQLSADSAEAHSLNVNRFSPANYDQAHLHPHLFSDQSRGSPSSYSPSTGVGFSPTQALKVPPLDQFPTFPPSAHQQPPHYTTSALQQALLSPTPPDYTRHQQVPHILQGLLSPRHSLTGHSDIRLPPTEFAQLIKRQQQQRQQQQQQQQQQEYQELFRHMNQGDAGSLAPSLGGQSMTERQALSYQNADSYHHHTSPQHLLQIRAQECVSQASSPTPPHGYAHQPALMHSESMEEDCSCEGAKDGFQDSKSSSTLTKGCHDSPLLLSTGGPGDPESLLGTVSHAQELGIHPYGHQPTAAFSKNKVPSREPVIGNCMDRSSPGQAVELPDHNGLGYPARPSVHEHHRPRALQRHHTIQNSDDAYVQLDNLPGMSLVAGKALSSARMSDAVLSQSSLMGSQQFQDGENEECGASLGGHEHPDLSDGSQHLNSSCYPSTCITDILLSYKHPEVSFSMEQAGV
Description: as §1, §2, §3, §4, §5, §6, §7

T1 sequence (P57059 whole entry): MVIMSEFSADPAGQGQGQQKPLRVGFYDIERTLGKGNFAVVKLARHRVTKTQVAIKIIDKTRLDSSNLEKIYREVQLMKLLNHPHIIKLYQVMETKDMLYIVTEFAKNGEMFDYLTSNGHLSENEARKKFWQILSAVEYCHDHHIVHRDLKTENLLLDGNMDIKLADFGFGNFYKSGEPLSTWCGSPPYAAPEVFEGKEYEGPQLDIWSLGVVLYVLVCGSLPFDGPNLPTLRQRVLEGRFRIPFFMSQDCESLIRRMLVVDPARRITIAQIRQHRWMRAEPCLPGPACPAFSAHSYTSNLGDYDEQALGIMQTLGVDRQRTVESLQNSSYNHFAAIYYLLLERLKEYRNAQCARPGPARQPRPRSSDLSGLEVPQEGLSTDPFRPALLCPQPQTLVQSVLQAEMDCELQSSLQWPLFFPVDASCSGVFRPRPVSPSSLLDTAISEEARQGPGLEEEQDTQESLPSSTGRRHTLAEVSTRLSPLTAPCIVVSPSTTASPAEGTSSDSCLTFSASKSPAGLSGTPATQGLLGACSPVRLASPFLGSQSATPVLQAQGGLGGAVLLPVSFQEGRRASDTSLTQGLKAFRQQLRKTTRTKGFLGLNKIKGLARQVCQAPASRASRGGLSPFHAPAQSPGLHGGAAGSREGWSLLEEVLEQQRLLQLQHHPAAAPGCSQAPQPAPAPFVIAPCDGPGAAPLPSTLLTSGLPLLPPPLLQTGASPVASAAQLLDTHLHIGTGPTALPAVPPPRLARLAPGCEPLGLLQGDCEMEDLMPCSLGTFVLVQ

`COc1cc(-c2cnc3cc(OCC4(N)COC4)ccn23)cc(OC(F)F)c1C(=O)NC1CC1` [compound 170, 4-[7-[(3-aminooxetan-3-yl)methoxy]imidazo[1,2-a]pyridin-3-yl]-N-cyclopropyl-2-(difluoromethoxy)-6-methoxy-benzamide] showed an IC50 [1] of 10 to 100 nM, an IC50 [2] of 0.01 to 10 nM and an IC50 [3] of 0.01 to 10 nM.

`COc1cc(-c2cnc3cc(OCCN4CCCC4=O)ccn23)cc(OC(F)F)c1C(=O)NC1CC1` [compound 63, N-cyclopropyl-2-(difluoromethoxy)-6-methoxy-4-[7-[2-(2-oxopyrrolidin-1-yl)ethoxy]imidazo[1,2-a]pyridin-3-yl]benzamide] showed an IC50 [1] of 0.01 to 10 nM, an IC50 [2] of 0.01 to 10 nM and an IC50 [3] of 0.01 to 10 nM.

Compound `COc1cc(-c2cnc3cc(OCC4(C)CN(C(=O)OC(C)(C)C)C4)ccn23)cc2c1C(=O)N(CC(F)(F)F)CC2` [compound 249, tert-butyl 3-[[3-[8-methoxy-1-oxo-2-(2,2,2-trifluoroethyl)-3,4-dihydroisoquinolin-6-yl]imidazo[1,2-a]pyridin-7-yl]oxymethyl]-3-methyl-azetidine-1-carboxylate] has an IC50 [1] of 100 to 500 nM, an IC50 [2] of 10 to 100 nM and an IC50 [3] of 0.01 to 10 nM.

Compound `COc1cc(-c2cnc3cc(OCC4CC4)ccn23)cc(OC(F)F)c1C(=O)NC1CC1` [compound 96, N-cyclopropyl-4-[7-(cyclopropylmethoxy)imidazo[1,2-a]pyridin-3-yl]-2-(difluoromethoxy)-6-methoxy-benzamide] has an IC50 [1] of 10 to 100 nM, an IC50 [2] of 0.01 to 10 nM and an IC50 [3] of 0.01 to 10 nM.

`COc1cc(-c2cnc3cc(OCCN4CCOC(C)(C)C4)ccn23)cc(OC(F)F)c1C(=O)NC1CC1` [compound 194, N-cyclopropyl-2-(difluoromethoxy)-4-[7-[2-(2,2-dimethylmorpholin-4-yl)ethoxy]imidazo[1,2-a]pyridin-3-yl]-6-methoxy-benzamide] was tested, and the IC50 [1] was 10 to 100 nM, the IC50 [2] was 0.01 to 10 nM and the IC50 [3] was 0.01 to 10 nM.

`COc1cc(-c2cnc3cc(OCCNC(C)=O)ccn23)cc(OC(F)F)c1C(=O)NC1CC1` [compound 27, 4-[7-(2-acetamidoethoxy)imidazo [1,2-a]pyridin-3-yl]-N-cyclopropyl-2-(difluoromethoxy)-6-methoxy-benzamide] was tested, and the IC50 [1] was 0.01 to 10 nM, the IC50 [2] was 0.01 to 10 nM and the IC50 [3] was 0.01 to 10 nM.

For `COc1cc(-c2cnc3cc(OC[C@H]4CCCN(CCO)C4)ccn23)cc(OC(F)F)c1C(=O)NC1CC1` [Cpd 340, N-cyclopropyl-2-(difluoromethoxy)-4-[7-[[(3S)-1-(2-hydroxyethyl)-3-piperidyl]methoxy]imidazo [1,2-a]pyridin-3-yl]-6-methoxy-benzamide], the IC50 [1] was 10 to 100 nM, the IC50 [2] was 0.01 to 10 nM and the IC50 [3] was 0.01 to 10 nM.

Work on `COc1cc(-c2cnc3cc(OCC(F)F)ccn23)cc(OC(F)F)c1C(=O)NC1CC1` [compound 90, N-cyclopropyl-4-[7-(2,2-difluoroethoxy)imidazo [1,2-a]pyridin-3-yl]-2-(difluoromethoxy)-6-methoxy-benzamide] yielded an IC50 [1] of 10 to 100 nM, an IC50 [2] of 0.01 to 10 nM and an IC50 [3] of 0.01 to 10 nM.

In the case of `COc1cc(-c2cnc3cc(OCc4cncs4)ccn23)cc(OC(F)F)c1C(=O)NC1CC1` [compound 95, N-cyclopropyl-2-(difluoromethoxy)-6-methoxy-4-[7-(thiazol-5-ylmethoxy)imidazo[1,2-a]pyridin-3-yl]benzamide], the IC50 [1] is reported as 10 to 100 nM, the IC50 [2] is reported as 0.01 to 10 nM and the IC50 [3] is reported as 0.01 to 10 nM.

Work on `COc1cc(-c2cnc3cc(OCC4CCCCC4)ccn23)cc(OC(F)F)c1C(=O)NC1CC1` [compound 69, 4-[7-(cyclohexylmethoxy)imidazo[1,2-a]pyridin-3-yl]-N-cyclopropyl-2-(difluoromethoxy)-6-methoxy-benzamide] yielded an IC50 [1] of 10 to 100 nM, an IC50 [2] of 0.01 to 10 nM and an IC50 [3] of 0.01 to 10 nM.

For `COc1cc(-c2cnc3cc(OCC(C)(C)N(C)C)ccn23)cc(OC(F)F)c1C(=O)NC1CC1` [compound 106, N-cyclopropyl-2-(difluoromethoxy)-4-[7-[2-(dimethylamino)-2-methyl-propoxy]imidazo[1,2-a]pyridin-3-yl]-6-methoxy-benzamide], the IC50 [1] was > 500 nM, the IC50 [2] was 10 to 100 nM and the IC50 [3] was 10 to 100 nM.

With `CN(C)CCOc1ccn2c(-c3cc(F)c(C(=O)NC4CC4)c(OC(F)F)c3)cnc2c1` [compound 146, N-cyclopropyl-2-(difluoromethoxy)-4-[7-[2-(dimethylamino)ethoxy]imidazo[1,2-a]pyridin-3-yl]-6-fluoro-benzamide] the IC50 [1] was > 500 nM, the IC50 [2] was 10 to 100 nM and the IC50 [3] was 10 to 100 nM.

Work on `COc1cc(-c2cnc3cc(OCc4cccnn4)ccn23)cc(OC(F)F)c1C(=O)NC1CC1` [compound 226, N-cyclopropyl-2-(difluoromethoxy)-6-methoxy-4-[7-(pyridazin-3-ylmethoxy)imidazo[1,2-a]pyridin-3-yl]benzamide] yielded an IC50 [1] of 10 to 100 nM, an IC50 [2] of 0.01 to 10 nM and an IC50 [3] of 0.01 to 10 nM.

Compound `COC(=O)C1(COc2ccn3c(-c4cc(OC)c(C(=O)NC5CC5)c(OC(F)F)c4)cnc3c2)CC1` [compound 57, methyl 1-[[3-[4-(cyclopropylcarbamoyl)-3-(difluoromethoxy)-5-methoxy-phenyl]imidazo[1,2-a]pyridin-7-yl]oxymethyl] cyclopropanecarboxylate] has an IC50 [1] of 10 to 100 nM, an IC50 [2] of 0.01 to 10 nM and an IC50 [3] of 0.01 to 10 nM.

`COCC(C)(C)Oc1ccn2c(-c3cc(OC)c(C(=O)NC4CC4)c(OC(F)F)c3)cnc2c1` [Cpd 260, N-cyclopropyl-2-(difluoromethoxy)-6-methoxy-4-[7-(2-methoxy-1,1-dimethyl-ethoxy)imidazo[1,2-a]pyridin-3-yl]benzamide] was tested, and the IC50 [1] was > 500 nM, the IC50 [2] was > 500 nM and the IC50 [3] was 10 to 100 nM.

In the case of `CCC(COc1ccn2c(-c3cc(OC)c(C(=O)NC4CC4)c(OC(F)F)c3)cnc2c1)N(C)C` (stereo not drawn) [compound 203], the IC50 [1] is reported as 100 to 500 nM, the IC50 [2] is reported as 10 to 100 nM and the IC50 [3] is reported as 0.01 to 10 nM.

Work on `COc1cc(-c2cnc3cc(OCc4cccnc4)ccn23)cc(OC(F)F)c1C(=O)NC1CC1` [compound 43, N-cyclopropyl-2-(difluoromethoxy)-6-methoxy-4-[7-(3-pyridylmethoxy)imidazo [1,2-a]pyridin-3-yl]benzamide] yielded an IC50 [1] of 10 to 100 nM, an IC50 [2] of 0.01 to 10 nM and an IC50 [3] of 0.01 to 10 nM.

With `COc1cc(-c2cnc3cc(OC(C)CN4CCOCC4)ccn23)cc(OC(F)F)c1C(=O)NC1CC1` (stereo not drawn) [compound 12, N-cyclopropyl-2-(difluoromethoxy)-6-methoxy-4-[7-(1-methyl-2-morpholino-ethoxy)imidazo[1,2-a]pyridin-3-yl]benzamide] the IC50 [1] was > 500 nM, the IC50 [2] was 100 to 500 nM and the IC50 [3] was 10 to 100 nM.

Compound `COc1cc(-c2cnc3cc(OCC4CC(N)C4)ccn23)cc(OC(F)F)c1C(=O)NC1CC1` (stereo not drawn) [compound 108, 4-[7-[(3-aminocyclobutyl)methoxy]imidazo[1,2-a]pyridin-3-yl]-N-cyclopropyl-2-(difluoromethoxy)-6-methoxy-benzamide] has an IC50 [1] of 0.01 to 10 nM, an IC50 [2] of 0.01 to 10 nM and an IC50 [3] of 0.01 to 10 nM.

`COc1cc(-c2cnc3cc(OCC4CCCCN4)ccn23)cc(OC(F)F)c1C(=O)NC1CC1` (stereo not drawn) [compound 119, N-cyclopropyl-2-(difluoromethoxy)-6-methoxy-4-[7-(2-piperidylmethoxy)imidazo[1,2-a]pyridin-3-yl]benzamide] gave an IC50 [1] of 10 to 100 nM, an IC50 [2] of 0.01 to 10 nM and an IC50 [3] of 0.01 to 10 nM.
